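In this assay, cells in 96-well plates receive the compound at five concentrations for 48 hours. Endpoints are linearly interpolated between the surrounding concentrations. At the GI50, growth is halved. At the TGI there is no net growth.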
Columns and labels:
Experiment in all cases: growth of human tumour cells (NCI), 48 h
IGROV1 ovarian = tested on: IGROV1 ovarian
COLO 205 colon = tested on: COLO 205 colon
SN12C renal = tested on: SN12C renal
NCI-H522 lung = tested on: NCI-H522 lung
UO-31 renal = tested on: UO-31 renal
MOLT-4 leukemia = tested on: MOLT-4 leukemia
MALME-3M melanoma = tested on: MALME-3M melanoma
A498 renal = tested on: A498 renal
SNB-75 CNS = tested on: SNB-75 CNS
HOP-92 NSCLC = tested on: HOP-92 NSCLC

Row | SMILES | TGI (IGROV1 ovarian) | TGI (COLO 205 colon) | TGI (SN12C renal) | TGI (NCI-H522 lung) | TGI (UO-31 renal) | TGI (MOLT-4 leukemia) | TGI (MALME-3M melanoma) | TGI (A498 renal) | TGI (SNB-75 CNS) | TGI (HOP-92 NSCLC) | GI50 (IGROV1 ovarian) | GI50 (SNB-75 CNS) | GI50 (HOP-92 NSCLC) | GI50 (SN12C renal) | GI50 (NCI-H522 lung) | GI50 (UO-31 renal) | GI50 (MOLT-4 leukemia) | GI50 (MALME-3M melanoma) | GI50 (A498 renal)
1 | CC(C)c1cc(CN(C)C)c(O)c(C(C)(C)C)c1 | > 100 µM | 36.7 µM | 33.1 µM | 38.1 µM | 58 µM | 42.5 µM | 76.2 µM | 41.3 µM | – | – | – | – | – | – | – | – | – | – | –
2 | C=CC[N+]12CN3CN(CN(C3)C1)C2 | 66.4 µM | 65.9 µM | 60.2 µM | 34.9 µM | 43.7 µM | 57.5 µM | 45.2 µM | 94.1 µM | 48.1 µM | 46.9 µM | – | – | – | – | – | – | – | – | –
3 | COc1ccc(C[C@H](N)C(=O)NC2C(CO)OC(n3cnc4c(N(C)C)ncnc43)C2O)cc1 (some centres undefined) | 2.66 µM | 0.302 µM | – | – | 7.89 µM | 0.412 µM | 2.53 µM | 2.48 µM | 0.744 µM | 0.591 µM | – | – | – | – | – | – | – | – | –
4 | O=C1c2ccccc2C(=O)c2c(Nc3ccc4c5c(cccc35)C(=O)c3ccccc3-4)cccc21 | > 100 µM | – | > 100 µM | > 100 µM | > 100 µM | > 100 µM | > 100 µM | > 100 µM | > 100 µM | > 100 µM | – | – | – | – | – | – | – | – | –
5 | CC(C)(C)N1C(C(=O)c2ccccc2)C1c1ccccc1 (centres undefined) | > 100 µM | > 100 µM | > 100 µM | > 100 µM | – | > 100 µM | – | – | > 100 µM | > 100 µM | – | – | – | – | – | – | – | – | –
6 | O=c1ccc2nc(-c3ccccc3)nn(-c3ccccn3)c-2c1 | 45.4 µM | – | 37.9 µM | 2.97 µM | 2.81 µM | 6.21 µM | 3.56 µM | 37.3 µM | 26 µM | 3.31 µM | 14.1 µM | 13.2 µM | 1.25 µM | 16.9 µM | 1.51 µM | 1.45 µM | 1.79 µM | 1.92 µM | 16.6 µM
7 | N#CN=C(N)NC(=O)/C=C/C=C/c1ccc(Cl)cc1 | > 100 µM | > 100 µM | > 100 µM | > 100 µM | > 100 µM | > 100 µM | > 100 µM | > 100 µM | 54.8 µM | > 100 µM | – | – | – | – | – | – | – | – | –
8 | Nc1nc(N)c2c(n1)NC(=O)c1c(c3ccccc3n1Cc1ccc(Cl)cc1)C2 | > 100 µM | 30.5 µM | 38.2 µM | – | > 100 µM | 72 µM | > 100 µM | 30.8 µM | 69.2 µM | 20.4 µM | – | – | – | – | – | – | – | – | –

Source: PubChem BioAssay (NCI)
